Measured values from US12102633B2, “Spirolactone compounds” (Quixgen, Inc., priority 2017, dated 2024).

How the values were obtained:
human ACC1 = target: T1, human ACC1 (Homo sapiens, UniProt Q13085); experiment: Human ACC enzymatic activity assay (ACC1); assay type: biochemical; details: purified human ACC1; read-out: EA-CoA hACC 1 IC50
T1 construct: purchased BPS Bioscience
Method in brief: (§1)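 Purified human ACC1 (0.4 μg/mL) or ACC2 (0.48 μg/mL) was preincubated with compound 10 min at 37° C in HEPES pH 7.5 with 4.0 mM ATP and 15 mM ^13C-NaHCO3. The reaction was started with 5 μM acetyl-CoA, run 1-2 h at 37° C and stopped with TCA. Labelled malonyl-CoA was quantified by LC-MS/MS.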

human ACC2 = target: T2, human ACC2 (Homo sapiens, UniProt O00763); experiment: Human ACC enzymatic activity assay (ACC2); assay type: biochemical; details: purified human ACC2; read-out: EA-CoA hACC 2 IC50
T2 construct: purchased BPS Bioscience
Method in brief: as §1

Human sebocytes [1] = experiment: Cellular levels of malonyl-CoA in human sebocytes; assay type: cell-based; details: 0.5 h, 30 min incubation, read-out: Malonyl-CoA in Sebo IC50
Method: Shimadzu LC system was used for sample analysis consisting of system controller (Shimadzu CBM-20A), autosampler (Shimadzu SIL-20A), pump A and B (Shimadzu LC-20AD), column oven (Shimadzu CTO-20A), and analytical column (Phenomenex Gemini 5u C18 11A, 100×2 mm). LC was running at 200 μL/min in the binary gradient mode with mobile phase A (5 mM Ammonium Acetate and 5 mM DMBA in water (1,3-Dimethylbutylamine)) and B (methanol). The samples were analyzed on an AB Sciex QTrap4000 LC-MS/MS triple quadrupole mass spectrometer (Applied Biosystems). Malonyl-CoA and malonyl-13C-CoA were monitored in positive ion mode following MRM transitions at 854.2/347.1 and 855.1/246.1, respectively. The product and internal standard were coeluted to the mass spectrometer in 3 s with 50% H2O, 25% MeCN, 25% acetone, and 5 mM ammonium acetate. Ion chromatograms were integrated using the Analyst 1.5.2 software. Peak area ratios were compared against a standard curve and final cellular concentration of malonyl-CoA or production rate of malonyl-13C-CoA was calculated as pmoles/mg protein per minute.
Human sebocytes (Celprogen) were grown in growth media (DMEM with 4.5 g/L glucose, 0.584 g/L L-glutamine (Sigma), 100 units/mL of penicillin and 100 μg/mL of streptomycin (Gibco), 10% fetal bovine serum (Gibco)) at 37° C. in a humidified water jacketed incubator (Forma Scientific) supplemented with 5% CO2 till 100% confluency. Cells grown in 152 cm^2 cell culture dish (Corning) were trypsinized with 0.25% trypsin-EDTA (Gibco), centrifuged at 800 rpm for 10 min (Eppendorf) and resuspended in 4 mL growth media. To 1 μL serial diluted compounds in DMSO, 99 μL cells (around 0.5 million cells suspended in growth media) were added and mixed well followed by incubation in cell culture incubator for 30 min. Cells were then centrifuged at 800 rpm for 10 min and 70 μL 10% trichloroacetic acid was added to each well to lyse the cells and precipitate proteins. Cellular levels of malonyl-CoA were quantitated by LC-MS/MS.

Human sebocytes [2] = experiment: Proliferation of human sebocytes; assay type: cell-based; details: 24 hours, MTT, read-out: AP-Sebo IC50
Method: Human sebocytes (Celprogen) and keratinocytes (ATCC) were grown in 96-well culture microplate (Coming) with growth media to around 50% confluency. Media was changed to growth media mixed with serially diluted compounds in DMSO (1:1000 dilution). After treatment for 24 hours, media was changed to 100 μL phenol red free DMEM and cell numbers were quantitated by using Vybrant® MTT Cell Proliferation Assay Kit (Molecular Probes). Ten μL of 12 mM MTT stock solution was added to each well and the microplate was incubated at 37° C. for 4 hours. Then 100 μL of the SDS-HCl solution was added to each well and mixed thoroughly using a pipette. The microplate was incubated at 37° C. for 4 hours in a cell culture incubator. The microplate was mixed again using a pipette and absorbance was read at 570 nm (Dynex MRX^e Magellan Biosciences). Effect of compounds on proliferation of human keratinocytes was calculated by % of DMSO vehicle control.

[3] = Standard PK in CD-1 mice (m-PK); assay type: in vivo, mouse; details: for half-life / clearance: male; for half-life: CD-1, mouse, whole blood, read-out: m-PK T1/2 (converted); for clearance: CD-1, whole blood, 1 mg/kg IV, read-out: m-PK Cl; for clearance / m-PK F: mouse; for m-PK F: 5 mg/kg PO vs 1 mg/kg IV
Method: Standard PK. Male catheterized CD-1 mice were treated with Compound 6 prepared in vehicle (5% DMSO+10% Solutol+85% PBS, PH=7.4) at doses of 1 mg/kg for IV (5 mL/kg) or 5 mg/kg for PO (10 mL/kg). Blood samples (20 VL) were collected at 0.083, 0.25, 0.5, 1, 2, 4, 8, and 24 hrs post dose and mixed with 60 VL 0.1 M sodium citrate. Upon extraction by using acetonitrile, blood concentrations of Compound 6 were quantitated by LC-MS/MS. PK parameters were calculated by using WinNonlin® 6.4.

Human sebocytes [4] = experiment: Lipogenesis of human sebocytes; assay type: cell-based; details: 96 hours, nile red, read-out: LG-Sebo IC50
Method: Human sebocytes (Celprogen) were grown in collagen-coated 96-well culture microplate (White/Clear bottom, Coming BioCoat) with growth media till 100% confluency. Culture media was changed to growth media plus 100 μM arachidonic acid (Sigma) and 10 μM rosiglitazone (Tocris) with compounds prepared in DMSO (1:1000 dilution in growth media). Cells were treated with compounds for 96 hours with media containing compounds changed after 48 hours. Upon completion of treatment, cells were washed with 200 μL Phosphate Buffered Saline (PBS) and then fixed by adding 100 μL 4% formaldehyde (Sigma) and incubated at room temperature for 1 hour. Cells were then washed 3 times with PBS. Microplate was stained with 100 μL nile red solution prepared in PBS (2 mg/mL, 1:400 dilution) by incubating at 37° C. for 1 hour and then washed 3 times with PBS. The fluorescence was read at Ex 492 nm and Em 595 nm (TECAN SpectrofluorPlus). Effect of compounds on lipogenesis in sebocytes was calculated by % of DMSO vehicle control.

T2 sequence (O00763 whole entry): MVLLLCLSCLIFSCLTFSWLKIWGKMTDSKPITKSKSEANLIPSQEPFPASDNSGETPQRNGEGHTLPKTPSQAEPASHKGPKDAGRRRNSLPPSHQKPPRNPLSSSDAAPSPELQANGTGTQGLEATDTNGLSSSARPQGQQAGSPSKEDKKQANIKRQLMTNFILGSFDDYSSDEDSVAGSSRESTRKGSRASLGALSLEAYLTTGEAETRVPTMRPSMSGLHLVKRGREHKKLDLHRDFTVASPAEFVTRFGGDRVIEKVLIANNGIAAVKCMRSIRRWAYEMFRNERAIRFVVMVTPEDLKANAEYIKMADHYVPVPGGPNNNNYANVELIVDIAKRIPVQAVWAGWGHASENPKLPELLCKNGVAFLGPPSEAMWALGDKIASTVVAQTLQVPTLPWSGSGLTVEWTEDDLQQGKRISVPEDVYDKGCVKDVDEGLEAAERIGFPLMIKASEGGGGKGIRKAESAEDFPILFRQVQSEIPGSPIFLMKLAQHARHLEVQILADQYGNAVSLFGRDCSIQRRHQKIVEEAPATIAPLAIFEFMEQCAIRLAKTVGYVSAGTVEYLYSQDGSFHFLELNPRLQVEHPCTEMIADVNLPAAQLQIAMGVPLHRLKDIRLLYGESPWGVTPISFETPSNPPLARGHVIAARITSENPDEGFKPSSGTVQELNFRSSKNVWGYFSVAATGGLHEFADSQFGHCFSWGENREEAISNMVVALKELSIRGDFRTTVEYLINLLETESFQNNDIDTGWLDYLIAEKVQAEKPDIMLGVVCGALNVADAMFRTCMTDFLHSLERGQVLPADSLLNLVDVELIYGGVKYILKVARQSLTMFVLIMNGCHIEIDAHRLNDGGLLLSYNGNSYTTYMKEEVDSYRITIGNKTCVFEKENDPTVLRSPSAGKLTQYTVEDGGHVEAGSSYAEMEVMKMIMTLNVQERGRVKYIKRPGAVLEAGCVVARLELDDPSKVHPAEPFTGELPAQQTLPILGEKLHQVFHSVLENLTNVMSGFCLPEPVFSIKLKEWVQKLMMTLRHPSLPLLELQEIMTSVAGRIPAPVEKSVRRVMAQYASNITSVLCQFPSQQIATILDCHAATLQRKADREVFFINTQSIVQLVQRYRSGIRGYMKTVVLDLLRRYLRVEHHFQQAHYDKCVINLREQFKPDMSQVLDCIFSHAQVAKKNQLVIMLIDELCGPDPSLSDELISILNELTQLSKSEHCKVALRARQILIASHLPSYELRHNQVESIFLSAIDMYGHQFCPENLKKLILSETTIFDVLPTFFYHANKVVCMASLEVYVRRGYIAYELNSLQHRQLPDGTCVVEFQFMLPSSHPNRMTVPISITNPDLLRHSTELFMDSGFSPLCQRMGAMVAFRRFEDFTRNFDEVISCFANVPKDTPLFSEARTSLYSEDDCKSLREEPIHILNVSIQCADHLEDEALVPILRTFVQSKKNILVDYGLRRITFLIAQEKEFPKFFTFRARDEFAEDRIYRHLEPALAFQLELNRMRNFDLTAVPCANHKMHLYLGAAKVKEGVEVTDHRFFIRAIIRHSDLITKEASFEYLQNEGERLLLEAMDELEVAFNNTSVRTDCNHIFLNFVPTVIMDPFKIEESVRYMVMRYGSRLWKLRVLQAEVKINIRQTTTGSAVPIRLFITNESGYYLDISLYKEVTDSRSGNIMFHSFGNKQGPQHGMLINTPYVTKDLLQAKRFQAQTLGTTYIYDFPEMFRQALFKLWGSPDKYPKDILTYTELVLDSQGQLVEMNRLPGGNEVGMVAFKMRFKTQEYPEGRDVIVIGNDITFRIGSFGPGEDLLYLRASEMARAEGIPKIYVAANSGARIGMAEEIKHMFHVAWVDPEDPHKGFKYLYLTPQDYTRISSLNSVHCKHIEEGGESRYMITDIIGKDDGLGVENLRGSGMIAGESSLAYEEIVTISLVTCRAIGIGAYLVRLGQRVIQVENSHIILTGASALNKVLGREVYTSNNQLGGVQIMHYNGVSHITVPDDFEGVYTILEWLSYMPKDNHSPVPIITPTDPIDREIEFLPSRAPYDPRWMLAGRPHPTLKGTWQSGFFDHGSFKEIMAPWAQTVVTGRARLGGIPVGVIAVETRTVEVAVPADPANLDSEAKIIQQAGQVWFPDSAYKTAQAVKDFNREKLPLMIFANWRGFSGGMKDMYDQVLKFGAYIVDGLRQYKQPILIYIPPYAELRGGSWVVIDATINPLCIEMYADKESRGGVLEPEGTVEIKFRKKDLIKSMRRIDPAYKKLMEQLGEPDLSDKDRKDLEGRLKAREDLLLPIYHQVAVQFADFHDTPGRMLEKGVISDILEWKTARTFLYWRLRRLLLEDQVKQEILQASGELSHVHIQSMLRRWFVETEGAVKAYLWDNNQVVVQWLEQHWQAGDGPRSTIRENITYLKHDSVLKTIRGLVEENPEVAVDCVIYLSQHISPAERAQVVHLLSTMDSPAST

IC50 (human ACC1) [nM] | IC50 (human ACC2) [nM] | IC50 (Human sebocytes [1]) [nM] | half-life [3] [min] | clearance [3] [mL/min/kg] | m-PK F [3] | IC50 (Human sebocytes [4]) [nM] | SMILES | IC50 (Human sebocytes [2]) [nM]
36.2 | 31.2 | 47.4 | 30 | 15.2 | F: 53% |  | COc1cc(C(=O)N2CCC3(CC2)Cc2ccc(Nc4ccnn4C)cc2C(=O)O3)nc2c(OC)cccc12 [Example 6, 1′-(4,8-dimethoxyquinoline-2-carbonyl)-7-((1-methyl-1H-pyrazol-5-yl)amino)spiro[isochroman-3,4′-piperidin]-1-one] | 2.5
 |  |  | 25.2 | 46.5 | F: 4.9% | 25 | COc1cc(C(=O)N2CCC3(CC2)Cc2ccc(C(C)C)cc2C(=O)O3)nc2c(OC)cccc12 [Example 2, 1′-(4,8-dimethoxyquinoline-2-carbonyl)-7-isopropylspiro[isochroman-3,4′-piperidin]-1-one] | 57.1
